± gives the expanded uncertainty stated by the source.
Legend:
[1] = molar heat capacity at constant pressure; details: 101.33 kPa, Liquid, Small sample (50 mg) DSC
[2] = 101.33 kPa, Liquid; for viscosity: Capillary tube (Ostwald / Ubbelohde) method; for mass density: Vibrating tube method
[3] = refractive index (Na D-line) (dimensionless); details: 101.33 kPa, Liquid, Standard Abbe refractometry

Compound	molar heat capacity at constant pressure ([1]; 288.15 K)	molar heat capacity at constant pressure ([1]; 293.15 K)	molar heat capacity at constant pressure ([1]; 298.15 K)	molar heat capacity at constant pressure ([1]; 303.15 K)	molar heat capacity at constant pressure ([1]; 308.15 K)	molar heat capacity at constant pressure ([1]; 313.15 K)	molar heat capacity at constant pressure ([1]; 318.15 K)	molar heat capacity at constant pressure ([1]; 323.15 K)	viscosity ([2]; 293.15 K)	mass density ([2]; 293.15 K)	viscosity ([2]; 313.15 K)	mass density ([2]; 313.15 K)	refractive index ([3]; 293.15 K)	refractive index ([3]; 313.15 K)
CC1COC(=O)O1 (configuration not stated) [4-methyl-1,3-dioxolan-2-one]	166.28 ± 3.3 J/K/mol	167.97 ± 3.4 J/K/mol	169.48 ± 3.4 J/K/mol	170.79 ± 3.4 J/K/mol	172.22 ± 3.4 J/K/mol	174.14 ± 3.5 J/K/mol	175.87 ± 3.5 J/K/mol	177.45 ± 3.5 J/K/mol	2.778 ± 0.022 mPa·s	1204.66 ± 0.18 kg/m3	1.909 ± 0.017 mPa·s	1183.06 ± 0.17 kg/m3	1.4223 ± 0.0006	1.4149 ± 0.0006
CCOC(=O)OCC [diethyl carbonate]	210.2 ± 4.2 J/K/mol	211.49 ± 4.2 J/K/mol	212.46 ± 4.2 J/K/mol	213.83 ± 4.3 J/K/mol	214.89 ± 4.3 J/K/mol	215.8 ± 4.3 J/K/mol	218.55 ± 4.4 J/K/mol	220.32 ± 4.4 J/K/mol	0.817 ± 0.008 mPa·s	975.84 ± 0.3 kg/m3	0.623 ± 0.007 mPa·s	952.39 ± 0.3 kg/m3	1.3858 ± 0.0007	1.3764 ± 0.0007
COC(=O)OC [dimethyl carbonate]	165.51 ± 3.3 J/K/mol	166.07 ± 3.3 J/K/mol	167.1 ± 3.3 J/K/mol	168.48 ± 3.4 J/K/mol	169.72 ± 3.4 J/K/mol	170.83 ± 3.4 J/K/mol	172.18 ± 3.4 J/K/mol	173.68 ± 3.5 J/K/mol	0.629 ± 0.006 mPa·s	1069.8 ± 0.37 kg/m3	0.494 ± 0.005 mPa·s	1043.25 ± 0.35 kg/m3	1.3689 ± 0.0006	1.3604 ± 0.0006
